According to PubChem BioAssay (NCI):
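Values below derive from 48-hour exposures of cells grown in 96-well plates, with endpoints linearly interpolated between the two concentrations bracketing the appropriate inhibition level. TGI denotes the concentration required for complete inhibition of growth.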

Key:
Experiment in all cases: DTP human tumour cell line panel, 48 h
MALME-3M melanoma = tested on: MALME-3M melanoma
NCI/ADR-RES ovarian = tested on: NCI/ADR-RES ovarian
DU-145 prostate = tested on: DU-145 prostate
M14 melanoma = tested on: M14 melanoma
ACHN renal = tested on: ACHN renal
LOX IMVI melanoma = tested on: LOX IMVI melanoma
HOP-92 NSCLC = tested on: HOP-92 NSCLC
SK-MEL-2 melanoma = tested on: SK-MEL-2 melanoma
TK-10 renal = tested on: TK-10 renal
NCI-H460 lung = tested on: NCI-H460 lung
SNB-75 CNS = tested on: SNB-75 CNS
EKVX NSCLC = tested on: EKVX NSCLC
NCI-H522 lung = tested on: NCI-H522 lung
OVCAR-3 ovarian = tested on: OVCAR-3 ovarian
UACC-257 melanoma = tested on: UACC-257 melanoma
A498 renal = tested on: A498 renal
BT-549 breast = tested on: BT-549 breast
SF-295 CNS = tested on: SF-295 CNS
KM12 colon = tested on: KM12 colon
SK-MEL-5 melanoma = tested on: SK-MEL-5 melanoma
OVCAR-4 ovarian = tested on: OVCAR-4 ovarian
PC-3 prostate = tested on: PC-3 prostate
IGROV1 ovarian = tested on: IGROV1 ovarian
HCT-15 colon = tested on: HCT-15 colon
HS 578T breast = tested on: HS 578T breast
HCC-2998 colon = tested on: HCC-2998 colon
MDA-MB-231 breast = tested on: MDA-MB-231 breast
SK-MEL-28 melanoma = tested on: SK-MEL-28 melanoma
OVCAR-5 ovarian = tested on: OVCAR-5 ovarian
UACC-62 melanoma = tested on: UACC-62 melanoma
HOP-62 NSCLC = tested on: HOP-62 NSCLC
MDA-MB-435 = tested on: MDA-MB-435
HT29 colon = tested on: HT29 colon
NCI-H23 lung = tested on: NCI-H23 lung
RPMI-8226 leukemia = tested on: RPMI-8226 leukemia
A549 NSCLC = tested on: A549 NSCLC
NCI-H226 lung = tested on: NCI-H226 lung
SNB-19 CNS = tested on: SNB-19 CNS
UO-31 renal = tested on: UO-31 renal
K-562 leukemia = tested on: K-562 leukemia
MOLT-4 leukemia = tested on: MOLT-4 leukemia
HL-60(TB) leukemia = tested on: HL-60(TB) leukemia
MCF7 breast = tested on: MCF7 breast
COLO 205 colon = tested on: COLO 205 colon
SK-OV-3 ovarian = tested on: SK-OV-3 ovarian
T-47D breast = tested on: T-47D breast
SF-268 CNS = tested on: SF-268 CNS
RXF 393 renal = tested on: RXF 393 renal
OVCAR-8 ovarian = tested on: OVCAR-8 ovarian
CAKI-1 renal = tested on: CAKI-1 renal
SW-620 colon = tested on: SW-620 colon
U251 CNS = tested on: U251 CNS

Measured: TGI

COP(=O)(OC)[C@H](O)[C@H]1C[C@@H]1c1ccccc1
> 100 µM: all assays above
